Results taken from US20050032708A1, “Modulation of physiological processes and agents useful for same” (priority 2001, published 2005).
Entries after “also recorded” stand apart in the source; their conditions may differ.

What was measured:
[1] = cited from earlier work
humans = details: cited from earlier work
[2] = Body weights and daily water consumption of rats receiving NAC in drinking water for 14 days; assay type: in vivo
Description: (§1) Male Sprague Dawley rats (380-430 g) were obtained from Department of Pathology, University of Melbourne. On arrival rats were housed in pairs in a temperature-controlled (20-24° C.) colony room maintained on a 12 hr light-dark cycle (6 am-6 pm). Rats had continuous access to food and water (plain or treated) and were weighed on arrival and then daily from onset of experiment. Rats were allowed to adjust to the new environment for 3 days before starting the experiment.
(§2) This experiment consisted of 24 rats in total. Eight rats received plain drinking water (controls), 8 rats received 0.5% NAC (Sigma) in their drinking water (low dose) and 8 rats received 2% NAC in their drinking water (high dose). Drug treatment was administered for 14 consecutive days. Bottles were cleaned and fresh drug solution was made up on days 4, 8 and 11. Body weights and amount of drinking water consumed per box were measured on a daily basis. After 7 days of drug treatment, behavioural testing began and continued until day 14 of treatment.

Male Sprague Dawley rats = assay: Effect of amphetamine on locomotor activity of rats receiving NAC in drinking water; assay type: in vivo
Description: as §1, §2
Locomotor activity was assessed in 8 automated photo cell cages, data being collected in 5-min intervals. Animals were placed individually in cages and baseline activity was measured during the first 30 minutes. After 30 minutes rats received a subcutaneous injection of either saline (vehicle), 0.5 mg/kg or 5 mg/kg amphetamine and locomotor activity was measured for a further 90 minutes. Drug treatment and time of day of the experiment were both randomised (see table 1). Each rat received 3 locomotor sessions in total. A period of 3 days was allowed between locomotor experiments to ensure complete elimination of amphetamine.
Locomotor hyperactivity was obtained as total distance moved per 30 min, i.e. before injection and 0-30 min, 30-60 min and 60-90 min after injection. In order to account for slight variations in baseline activity, post-injection behaviour was expressed a change of baseline activity. Average data for rats receiving water, 0.5% NAC, or 2% NAC was compared using analysis of variance for repeated measures (ANOVA) using the Systat 9.0 software package.

[3] = 600-1200 mg/day for three weeks, Ziegler and Gries, 1997

Compound: O=C(O)CCCCC1CCSS1 (stereo not drawn) [Alpha-lipoic Acid]
- Symptoms of diabetic neuropathy [1, 3]: reproducibly demonstrated benefit
- Tolerability [1, 3]: tolerated with no adverse effects

Compound: CC(=O)N[C@@H](CS)C(=O)O [NAC, N-acetyl cysteine]
- Plasma cystine levels (humans; dose of 3 g/day (4 capsules, 2 bid)): sustains elevated plasma cystine levels
- Human dosing without adverse effects (humans; human, Louwerse et al., 1995): up to 5 g/day
- Average daily water consumption per box ([2]; 0.5% NAC in drinking water (low dose), 14 days of treatment, control rats 77-90 ml): 60 to 72 mL
- Body weight over the treatment period compared with controls ([2]; 2% NAC in drinking water (high dose), 14 days): marked decrease in body weight
- Interaction of treatment x time, 5 mg/kg of amphetamine, vs controls (significant or not) (Male Sprague Dawley rats; 0.5% NAC): not
- Overall effect of 0.5 mg/kg of amphetamine on locomotor activity vs water controls (Male Sprague Dawley rats; 0.5% NAC in drinking water, F(1,14)=5.11, P=0.04): tended to be greater
- Baseline locomotor activity before injection, averaged over three sessions, vs water controls (Male Sprague Dawley rats; 0.5% or 2% NAC in drinking water, difference did not reach statistical significance): tended to be lower
- Duration of locomotor hyperactivity after 5 mg/kg of amphetamine (Male Sprague Dawley rats; 2% NAC): maintained longer than in controls; also recorded: prolonged effect
- Overall effect of 0.5 mg/kg of amphetamine on locomotor activity vs water controls (Male Sprague Dawley rats; 2% NAC in drinking water, F(1,13)=4.3, P=0.06): tended to be greater
- Overall effect of 5 mg/kg of amphetamine on locomotor activity vs controls (Male Sprague Dawley rats; 2% NAC to drink, failed to reach overall statistical significance): tended to be greater
- Interaction of treatment x time, 5 mg/kg of amphetamine, vs controls (Male Sprague Dawley rats; 2% NAC, F(2,28)=4.9, P=0.024): significant
- Maximal effect of 0.5 mg/kg of amphetamine on locomotor activity vs water controls (Male Sprague Dawley rats; 30-60 min after injection, either NAC dose (0.5% or 2%), 0.5 mg/kg): significantly greater; also recorded: greater maximal effect

Compound: C[Se]CC[C@H](N)C(=O)O [Selenomethionione]
- Adverse effects of long-term dose ([1]; 200 ug, one per day): no known adverse effects

Compound: O=C1O[C@H]([C@@H](O)CO)C(O)=C1O [Vitamin C]
- Elevation of plasma levels ([1]; 500 mg daily): 60%

Compound: Cc1c(C)c2c(c(C)c1O)CC[C@@](C)(CCC[C@H](C)CCC[C@H](C)CCCC(C)C)O2 [alpha-tocopherol]
- Adverse effects ([1]; 400 IU): without causing adverse effects
- CSF levels ([1]; 400 IU): sufficient to increase CSF levels
- Doses that may cause coagulopathies and can be a source of radicals ([1]; Bowry et al., 1995): higher than 2000 IU/day

Compound: CC(N)Cc1ccccc1 (stereo not drawn) [amphetamine]
- Locomotor activity after subcutaneous injection of amphetamine (Male Sprague Dawley rats; 0.5 mg/kg of amphetamine, 90 min after injection): induced a behavioural hyperactivity
- Locomotor activity after subcutaneous injection of amphetamine (Male Sprague Dawley rats; 5 mg/kg of amphetamine, activity fell to low levels later in the 90 min observation period): initially induced marked behavioural hyperactivity
